Measurements published in US11179348B2, “Combination comprising pterostilbene for the treatment of cancer” (FUNDACIÓN UNIVERSIDAD CATÓLICA DE VALENCIA SAN VICENTE …, priority 2015, dated 2021).
Marks after values point to notes of the source that are not given here.

How the values were obtained:
[1] = Hematology, clinical chemistry and urinary balance in tumor-bearing mice treated with Pter; assay type: in vivo; details: Pter 30 mg/kg i.v.
human melanoma = assay: Effect of pterostilbene on human melanoma in vivo (growth, Ki-67, TUNEL, nuclear Nrf2)
Protocol: Animals, Tumor Growth, and In Vivo Administration of Pter.
Female nu/nu nude mice (6-8 weeks; Charles Rivers Laboratories, Wilmington, Mass.) were fed ad libitum on a standard diet (Harlan Teklad Animal Diets & Bedding, Madison, Wis.). Mice were kept on a 12-h-light/12-h-dark cycle with the room temperature at 22° C. […] For cancer xenograft experiments, mice were inoculated s.c. with 10×10^6 cancer cells per mouse. Tumor volume was calculated based on two dimensions, measured using calipers, and was expressed in mm^3 according to V=0.5a×b^2, where a and b are the long and the short diameters of the tumor, respectively. For histological analysis xenograft samples were first fixed in 4% formaldehyde, paraffin embedded, and stained as indicated below. Mice were monitored after inoculation, and tumor measurements were taken every 2 days. For pharmacokinetic and treatment studies Pterostilbene (Green Molecular S. L., Paterna, Spain) [dissolved in DMSO:ethanol (2:1), 50 mg Pter/ml] was administered i.v. through the jugular vein (where, previously, a permanent catheter was surgically fixed). Administration was slowly performed during 1-2 min.
Monoclonal mouse anti-human HMB45 antibodies (Abcam, Cambridge, UK) were used for immunohistochemical detection of melanoma cells. For that purpose, the tumors were fixed and paraffin embedded as described above. Immunohistochemical analysis was applied to tissue slices (5 μm thick) following the standard methodology recommended by Abcam. A horseradish peroxidase-conjugated goat anti-mouse polyclonal (Abcam) was used as secondary antibody.
Monoclonal mouse anti-human Ki-67 (Dako, Sant Cugat del Vallés, Spain) were used for immunohistochemical detection of the tumor growing fraction. Immunohistochemical analysis was applied to tissue slices (5 μm thick) following the standard methodology recommended by Dako. A biotin-conjugated goat anti-rabbit polyclonal (Dako) was used as secondary antibody.
DNA strand breaks in apoptotic cells were assayed by using a direct TUNEL labeling assay (Boehringer, Mannheim, Germany) and fluorescence microscopy following manufacturer's methodology.
Nrf2 Gene Transfer and Measurement.
The Tet-Off Advanced Inducible Gene Expression System (Clontech, Palo Alto, Calif.) was used to insert the human Nrf2 gene and for transfection into melanoma cells following manufacturer's instructions. Tet-off cells stably expressed Tet-regulated pTRE-Tight-Nrf2 giving up to an increased Nrf2 gene expression (Tet-Nrf2 cells). To suppress Nrf2 protein levels Tet-Nrf2 cells were cultured in the presence of 2 mg tetracycline (Sigma)/10^6 cells. The NE-PER extraction kit from Thermo Scientific (Rockford, Ill.) was used for nuclear protein extraction according to the manufacturer's instructions. The protein content was determined by the Pierce BCA protein assay. The antibodies (mouse monoclonal primary antibodies) against Nrf2 were purchased from Abcam. A total of 50 mg of protein was boiled in Laemmli buffer and resolved by 12.0% SDS-PAGE. Proteins were transferred to a nitrocellulose membrane (Hybond C-extra, GE Healthcare Europe GmbH, Barcelona, Spain) and subjected to Western blotting. The blotted membrane was blocked for 1 h at room temperature in Tris-buffered saline (TBS) containing 5% (w/v) membrane-blocking reagent (non-fat dried milk). All antibody incubations were carried out at room temperature in TBS containing 1% membrane-blocking reagent. […] Protein bands were quantified using laser densitometry.

[2] = tumors of Pter-treated melanoma-bearing mice

## COc1cc(/C=C/c2ccc(O)cc2)cc(OC)c1 [Pter, trans-3,5-dimethoxy-4′-hydroxystilbene]
[1]; A2058-bearing mice, day 35
  % CD3: 1.2 ± 0.2%
  Alanine aminotransferase: 7.0 ± 1.6 IU/L
  Albumin: 2.9 ± 0.6 g/dL
  Alkaline phosphatase: 140 ± 21 IU/L
  Aspartate aminotransferase: 140 ± 27 IU/L
  B cells: 63.4 ± 7.7
  Basophils: 0.0 ± 0.0 10^3/μL
  CD4: 0.9 ± 0.1
  CD8: 0.4 ± 0.05
  Chloride: 99 ± 10 mEq/L
  Creatinine: 0.5 ± 0.1 mg/dL
  Direct bilirubin: 0.1 ± 0.03 mg/dL
  Eosinophils: 0.05 ± 0.02 10^3/μL
  Erythrocytes: 7.0 ± 0.2^† 10^6/μL
  GGT: 2.0 ± 0.5 IU/L
  Glucose: 157 ± 19 mg/dL
  Hematocrit: 34.4 ± 3.0%
  Hemoglobin: 12.1 ± 0.4 g/dL
  Isolated CD2^+ lymphocytes: Cell volume: 164 ± 15 μm^3
  Isolated CD2^+ lymphocytes: GSH: 4.3 ± 0.5 nmol/10^6 cells
  Isolated CD2^+ lymphocytes: Glucose utilization: 1.24 ± 0.08 µmol/g/min
  Isolated CD2^+ lymphocytes: Glutamine utilization: 3.35 ± 0.32 µmol/g/min
  Isolated hepatocytes: Cell volume: 2.9 ± 0.2 μL/mg dry wt.
  Isolated hepatocytes: GSH: 4760 ± 377 nmol/g of cells
  Isolated hepatocytes: Glucose utilization: 1.57 ± 0.12 µmol/g/min
  Lactate dehydrogenase: 251 ± 38 IU/L
  Leukocytes: 2.2 ± 0.4 10^3/μL
  Lymphocytes: 1.3 ± 0.2 10^3/μL
  Monocytes: 0.04 ± 0.02* 10^3/μL
  NK: 4.1 ± 1.5
  Neutrophils: 0.8 ± 0.2 10^3/μL
  Plasma osmolality: 278 ± 15 mOsm/kg
  Platelets: 393 ± 36 10^3/μL
  Potassium: 7.7 ± 1.6 mEq/L
  Sodium: 152 ± 20 mEq/L
  Total bilirubin: 0.5 ± 0.1 mg/dL
  Total protein: 3.9 ± 0.5 g/dL
  Urea: 50.4 ± 3.1 mg/dL
  Uric acid: 1.8 ± 0.4 mg/dL
  Urinary balance: Bilirubin: Negative
  Urinary balance: Erythrocytes: Negative
  Urinary balance: GFR: 167 ± 30 µL/min
  Urinary balance: Glucose: Normal
  Urinary balance: Ketones: Negative
  Urinary balance: Leukocytes: Negative
  Urinary balance: Nitrite: Negative
  Urinary balance: Protein: 0.2 g/L
  Urinary balance: Urobilinogen: Normal
  Urinary balance: pH: 7.7 ± 0.5
[1]; AsPC-1-bearing mice, day 28
  % CD3: 0.9 ± 0.3%
  Alanine aminotransferase: 13.2 ± 3.5 IU/L
  Albumin: 3.0 ± 0.6 g/dL
  Alkaline phosphatase: 147 ± 18 IU/L
  Aspartate aminotransferase: 166 ± 27 IU/L
  B cells: 71.4 ± 11.4
  Basophils: 0.0 ± 0.0 10^3/μL
  CD4: 0.8 ± 0.1
  CD8: 0.2 ± 0.1
  Chloride: 106 ± 9 mEq/L
  Creatinine: 0.5 ± 0.1 mg/dL
  Direct bilirubin: 0.1 ± 0.03 mg/dL
  Eosinophils: 0.04 ± 0.02 10^3/μL
  Erythrocytes: 6.2 ± 0.1^† 10^6/μL
  GGT: 2.3 ± 0.4 IU/L
  Glucose: 136 ± 20 mg/dL
  Hematocrit: 30.1 ± 1.5 %
  Hemoglobin: 12.0 ± 0.3 g/dL
  Isolated CD2^+ lymphocytes: Cell volume: 177 ± 14 μm^3
  Isolated CD2^+ lymphocytes: GSH: 4.2 ± 0.6 nmol/10^6 cells
  Isolated CD2^+ lymphocytes: Glucose utilization: 1.23 ± 0.15 µmol/g/min
  Isolated CD2^+ lymphocytes: Glutamine utilization: 3.40 ± 0.12 µmol/g/min
  Isolated hepatocytes: Cell volume: 3.0 ± 0.3 μL/mg dry wt.
  Isolated hepatocytes: GSH: 4420 ± 444 nmol/g of cells
  Isolated hepatocytes: Glucose utilization: 1.50 ± 0.13 µmol/g/min
  Lactate dehydrogenase: 288 ± 30 IU/L
  Leukocytes: 1.9 ± 0.3* 10^3/μL
  Lymphocytes: 1.1 ± 0.2 10^3/μL
  Monocytes: 0.05 ± 0.02 10^3/μL
  NK: 2.7 ± 1.1
  Neutrophils: 0.6 ± 0.2^† 10^3/μL
  Plasma osmolality: 278 ± 16 mOsm/kg
  Platelets: 312 ± 55^† 10^3/μL
  Potassium: 8.9 ± 1.7 mEq/L
  Sodium: 149 ± 14 mEq/L
  Total bilirubin: 0.5 ± 0.1 mg/dL
  Total protein: 3.5 ± 0.5 g/dL
  Urea: 52.4 ± 5.7 mg/dL
  Uric acid: 1.6 ± 0.3 mg/dL
  Urinary balance: Bilirubin: Negative
  Urinary balance: Erythrocytes: Negative
  Urinary balance: GFR: 186 ± 17 µL/min
  Urinary balance: Glucose: Normal
  Urinary balance: Ketones: Negative
  Urinary balance: Leukocytes: Negative
  Urinary balance: Nitrite: Negative
  Urinary balance: Protein: 0.3 g/L
  Urinary balance: Urobilinogen: Normal
  Urinary balance: pH: 7.7 ± 0.4
Human melanoma; 20 mg/kg vs 30 mg/kg
  melanoma growth inhibition at lower dose: less effective
Human melanoma; 40 mg/kg vs 30 mg/kg
  melanoma growth inhibition at higher dose: no further inhibition
Human melanoma; in vivo Pter-treated vs control melanoma-bearing mice (FIG. 4C)
  nuclear Nrf2 in melanoma cells: decreased
Human melanoma; [2]
  apoptotic cell death in tumors (TUNEL): increase
  melanoma cell proliferation in tumors (Ki-67 staining): decrease
